From patent publication US20140234868A1, “USE FOR GLYCOLIPOPROTEIN GINTONIN, ISOLATED AND IDENTIFIED FROM GINSENG, AS A NATURAL MEDICAL-PLANT DERIVED LIGAND” (KONKUK UNIVERSITY INDUSTRIAL COOPERATION CORP., priority 2011, published 2014)

What was measured:
[1] = test system: NMDA receptors (NR1 and NR2); experiment: NMDA receptor activity in Xenopus oocytes, two-electrode voltage clamp; format: cell-based; conditions: Kil6425 10 μM, 2-APB 100 μM, BAPTA 100 μM 3 h; for effect on NMDA-induced inward current: U73122 1 μM; for effect on gintonin-induced NMDA receptor activation: gintonin 1 μg/ml, U73122, U73343 1 μM, genistein 10 μM, PP2, PP3 30 μM
Method: cDNAs of NMDA receptor subunits (NR1 and NR2) were employed (Zheng et al., J Neurosci. 17, 8676-8686, 1997). cDNAs (100 ng/40 nl) corresponding to respective NMDA receptor subunits (NR1 and NR2) were injected into animal or vegetal poles of oocytes by use of a […] (VWR Scientific, USA) and incubated for 4-5 days after injection (Zheng et al., J Neurosci. 17, 8676-8686, 1997).
(§1) Xenopus laevis frogs were obtained from Xenopus I (Ann Arbor, Mich.). Their care and handling were in accordance with the highest standards of institutional guidelines. To isolate oocytes, the frogs were operated on under anesthesia with an aerated solution of 3-aminobenzoic acid ethyl ester. Oocytes were separated by treatment with collagenase and agitation for two hours in a Ca^2+-free medium containing 82.5 mM NaCl, 2 mM KCl, 1 mM MgCl2, 5 mM HEPES, 2.5 mM sodium pyruvate, 100 units/ml penicillin and 100 μg/ml streptomycin.
(§2) Stage V-VI oocytes were collected and stored in ND96 (96 mM NaCl, 2 mM KCl, 1 mM MgCl2, 1.8 mM CaCl2, and 5 mM HEPES, pH 7.4) supplemented with 50 μg/ml gentamicin. This oocyte containing solution was maintained at 18° C. with continuous gentle shaking while the ND96 medium was changed to a fresh one every day.
Two-electrode voltage-clamp recordings were obtained from individual oocytes placed in a small Plexiglas net chamber (5 ml). Electrophysiological experiments were performed using microelectrodes filled with 3 M KCl (resistance of 0.2-0.7 MΩ) and an Oocyte Clamp amplifier (OC-725C; Warner Instrument, Hamden, Conn.). For physiological recordings of NMDA receptor activity, oocytes were first perfused with Mg^2+-free ND96 (mM: 96 NaOH, 2 KOH, 0.3 CaCl2, 5 HEPES pH 7.6 with methanesulfonic acid). Then, the oocytes were clamped at −60 mV holding potential, followed by recoding NMDA currents (induced by administering […]) (Zheng et al., J Neurosci. 17, 8676-8686, 1997; Chang and Kuo, J Neurosci. 28, 1546-1556, 2008).

endogenous CaCC = experiment: Endogenous Ca2+-activated channel (CaCC) activation in Xenopus oocytes; format: cell-based, Xenopus laevis; conditions: Kil6425 10 μM; U73122 1 μM; 2-APB 100 μM; BAPTA 100 μM 3 h
BKCaK+ channels = experiment: BKCa K+ channel activity in Xenopus oocytes, two-electrode voltage clamp; format: cell-based; conditions: 2-APB 100 μM, BAPTA-AM, PMA 1 μM; for effect on gintonin-induced BKCaK+ channel activation: Kil6425 10 μM, U73122, U73343 1 μM
Method: as §1
as §2, with “changed with” for “changed to”
Two-electrode voltage-clamp recordings were obtained from individual oocytes placed in a small Plexiglas net chamber (5 ml). Electrophysiological experiments were performed using microelectrodes filled with 3 M KCl (resistance of 0.2-0.7 MΩ) and an Oocyte Clamp amplifier (OC-725C; Warner Instrument, CT, USA) to record BKc K^+ channel activity at room temperature (Choi et al., Mol Cells 31, 133-140, 2011). For physiological recordings of BKCaK^+ channel activity, oocytes were first perfused with a Cl^−- and Ca^2+-free solution (mM: 96 NaOH, 2 KOH, 8 Mg-gluconate, 5 HEPES, 5 EGTA, pH 7.4 with methanesulfonic acid) supplemented with 500 μM anthracene-9-carboxylic acid, a Cl^− channel blocker, to block endogenous Cl-channels (Lu et al., J. Biol. Chem. 265, 16190-16194.1990). Then, the oocytes were clamped at −80 mV holding potential, followed by step depolarization from the holding potential to +40 mV at regular intervals of […] for 400 ms to record outward currents.

LPA2 receptor = LPA2 receptor (Homo sapiens, UniProt Q9HBW0); experiment: Intracellular free Ca2+ (Fura-2AM) in LPA2-expressing B103 cells; format: cell-based; parameters: host or cells: B103 rat neuroblastoma cells; conditions: LPA2-expressing B103 cells
Excerpt: (§3) LPA family receptors are endogenous to cells of most organs. B103 rat neuroblastoma cells, known as LPA receptor-null cells (Valentine et al., Biochim Biophys Acta 1780. 597-605) were transiently transfected with a plasmid (vector) carrying one of genes coding for LPA1(edg-2), LPA2(edg-4), LPA3(edg-7), LPA4, LPA5 and LPA6 receptors or a plasmid carrying none of them (empty vector). Two or three days after transfection, the cells are suspended, and made permeable. Then, the permeable cells are treated with Fura-2AM, a fluorescent dye binding to calcium, and then with gintonin, followed by spectrofluorephotometry to examine whether gintonin induces an increase in intracellular free Ca^2+ level.
(§4) (1) preparing large quantities of plasmids carrying respective LPA family receptor genes and an empty plasmid carrying none of them through amplification and purification (maxi-preparation); (2) verifying the expression of LPA receptors wherein B103 cells are transfected with haematoglutin (HA)-tagged LPA receptors, and then subjected to Western blotting analysis using an anti-HA primary antibody and a horseradish peroxidase (HRP)-conjugated secondary antibody to develop a color; (3) verifying the expression of LPA receptors wherein B1-3 cells are transfected with haematoglutin (HA)-tagged LPA receptors, and then subjected to confocal laser microscopy using an anti-HA antibody and a fluorescence dye Cy3-conjugated secondary antibody; (4) transfecting the empty plasmid and each of the plasmids carrying LPA family receptor genes into B103 cells; (5) treating the transfected B103 cells with trypsin (0.05% trypsin with EDTA, w/v) 2-3 days post-transfection, to give a cell suspension; (6) culturing the suspended B103 cells with Fura-2AM (2.5 μM); and (7) treating the suspended B103 cells with gintonin and quantifying a change in intracellular free Ca^2+ level in a cuvette by spectrofluorephotometry using Fura-2AM.
(§5) Human LPA (lysophosphatidic acid) receptor subtypes, orphan GPCRs (G protein coupled receptors) and plasmids carrying GPCRs were purchased from Missouri S&T resource Center (www.cDNA.org).
(§6) The transient transfection of LPA receptor subtypes was carried out with the aid of Lipofectamine 2000 of Invitrogen. A plasmid (10.8 μg) carrying each LPA receptor (LPA1, LPA2, LPA3, LPA4, LPA5, and LPA6) was transfected into B103 cells grown in 10-cm dishes, and incubated for 2 days prior for use in experiments.
In this Example, gintonin, or ginsenoside Rb1 or Rg1 was examined for its ability to induce a transient increase of [Ca^2+]i in Fura-2AM-loaded B103 cells which were transfected with LPA receptors and in Fura-2AM-loaded B103 cells which were not transfected with LPA receptors. […]

LPA3 receptor = target: T1, LPA3 receptor (Homo sapiens, UniProt Q9UBY5); experiment: Intracellular free Ca2+ (Fura-2AM) in LPA3-expressing B103 cells; format: cell-based; conditions: LPA3-expressing B103 cells; for increase of intracellular calcium level: ginsenosides each 10 μM
T1 construct: host or cells: B103 rat neuroblastoma cells
T1 sequence (Q9UBY5 1-353): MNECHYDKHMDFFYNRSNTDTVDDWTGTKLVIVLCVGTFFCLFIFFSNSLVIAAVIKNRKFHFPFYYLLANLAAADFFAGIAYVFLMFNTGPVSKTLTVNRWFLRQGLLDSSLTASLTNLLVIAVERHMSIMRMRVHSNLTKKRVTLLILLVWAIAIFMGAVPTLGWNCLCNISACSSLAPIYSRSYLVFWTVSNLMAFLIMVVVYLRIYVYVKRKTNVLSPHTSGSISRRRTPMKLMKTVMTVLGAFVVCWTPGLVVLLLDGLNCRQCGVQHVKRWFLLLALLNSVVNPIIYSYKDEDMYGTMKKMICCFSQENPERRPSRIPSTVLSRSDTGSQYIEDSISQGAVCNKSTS
Excerpt: as §3, §4, §5, §6
In this Example, gintonin, or ginsenoside Rb1 or Rg1 was examined for its ability to induce a transient increase of [Ca^2+]i in Fura-2AM-loaded B103 cells which were transfected with LPA receptors and in Fura-2AM-loaded B103 cells which were not transfected with LPA receptors. To this end, B103 cells (2˜4×10^6/ml) pre-treated with Fura-2AM were suspended in a 1.5 mM Ca^2+-containing buffer or Ca^2+-free buffer, and incubated 37° C. for 30 min, followed by analyzing intracellular calcium levels in the B103 cells in the presence of gintonin or ginsenosides.
Briefly, B103 cells (1˜2×10^6/ml) were mixed with 2.5 μM Fura 2-AM in a Ca^2+ buffer (pH 7.4) containing NaCl 120 mM, KCl 5 mM, MgCl2 1 mM, CaCl2 1.5 mM, glucose 10 mM, and HEPES 25 mM, and a Ca^2+ free buffer (pH 7.4) containing NaCl 120 mM, KCl 5 mM, MgCl2 1 mM, EGTA 0.2 mM, glucose 10 mM, and HEPES 25 mM at 37° C. for 30 min in water bath with shaking according to the Jørgensen method, and washed three times with Ca^2+ buffer or Ca^2+ free buffer to remove excess Fura-2AM.
[Ca^2+]i was estimated in Fura 2AM-loaded cells in suspension using an RF-5300PC intracellular ion measurement system (Shimadzu Corporation, Japan).
Briefly, Fura 2-AM loaded cells were diluted with an experimental medium to a final density of 2˜4×10^6 cells/mL, and transferred to polystyrene cuvettes (Elkay Ultra-VU). The cells were stirred using Teflon-coated magnets, and the cuvette housing was thermostatically controlled at 37° C. The excitation wavelengths were alternated between 340 and 380 nm under computer control. […]

Sequence of LPA2 receptor (Q9HBW0 whole entry): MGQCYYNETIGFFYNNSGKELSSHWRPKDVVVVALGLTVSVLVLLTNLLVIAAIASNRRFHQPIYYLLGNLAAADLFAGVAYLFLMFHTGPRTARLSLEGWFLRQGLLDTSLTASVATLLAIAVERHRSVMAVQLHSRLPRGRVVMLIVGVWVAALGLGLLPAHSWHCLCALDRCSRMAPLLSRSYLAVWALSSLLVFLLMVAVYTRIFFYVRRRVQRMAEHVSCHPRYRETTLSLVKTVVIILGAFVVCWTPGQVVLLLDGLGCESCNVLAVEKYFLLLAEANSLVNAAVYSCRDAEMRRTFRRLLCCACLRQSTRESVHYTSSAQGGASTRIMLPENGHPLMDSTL

Compound	effect on NMDA-induced inward current [1]	effect on gintonin-induced NMDA receptor activation [1]	effect on gintonin-induced CaCC activation (endogenous CaCC)	effect on gintonin-induced BKCaK+ channel activation (BKCaK+ channels)	effect on gintonin-induced intracellular calcium increase (LPA2 receptor)	increase of intracellular calcium level (LPA3 receptor)	also measured
NCCOB(c1ccccc1)c1ccccc1 [2-APB]	did not block NMDA-induced inward current	blocked gintonin-induced NMDA receptor activation	suppressed gintonin-induced CaCC activation	blocked gintonin-induced BKCaK^+ channel activation	blocked		effect on ginsenoside Rg3-induced BKCaK+ channel activity (BKCaK+ channels; U73122 1 μM): not blocked
CC(C)=CCC[C@](C)(O[C@@H]1O[C@H](CO)[C@@H](O)[C@H](O)[C@H]1O)[C@H]1CC[C@]2(C)[C@@H]1[C@H](O)C[C@@H]1[C@@]3(C)CC[C@H](O)C(C)(C)[C@@H]3[C@@H](O[C@@H]3O[C@H](CO)[C@@H](O)[C@H](O)[C@H]3O)C[C@]12C [Rg1, ginsenoside Rg1]						no increased intracellular calcium levels were detected	
CC(C)=CCC[C@](C)(O[C@@H]1O[C@H](CO[C@@H]2O[C@H](CO)[C@@H](O)[C@H](O)[C@H]2O)[C@@H](O)[C@H](O)[C@H]1O)[C@H]1CC[C@]2(C)[C@@H]1[C@H](O)C[C@@H]1[C@@]3(C)CC[C@H](O[C@@H]4O[C@H](CO)[C@@H](O)[C@H](O)[C@H]4O[C@@H]4O[C@H](CO)[C@@H](O)[C@H](O)[C@H]4O)C(C)(C)[C@@H]3CC[C@]12C [Rb1, ginsenoside Rb1]						no increased intracellular calcium levels were detected	
CC(C)=CCC[C@](C)(O)[C@H]1CC[C@]2(C)[C@@H]1[C@H](O)C[C@@H]1[C@@]3(C)CC[C@H](O[C@@H]4O[C@H](CO)[C@@H](O)[C@H](O)[C@H]4O[C@@H]4O[C@H](CO)[C@@H](O)[C@H](O)[C@H]4O)C(C)(C)[C@@H]3CC[C@]12C [Rg3, ginsenoside Rg3]						no increased intracellular calcium levels were detected	
pertussis toxin [PTX]							lowering of gintonin-induced increase of intracellular calcium level (LPA3 receptor; PTX 200 μg/ml, 16 hrs pretreatment, vs cells not treated with PTX): 25%
COc1ccc2c(c1)CC[C@@H]1[C@@H]2CC[C@]2(C)[C@@H](NCCCCCCN3C(=O)C=CC3=O)CC[C@@H]12 [U73122]	did not block NMDA-induced inward current	blocked gintonin-induced NMDA receptor activation	suppressed gintonin-induced CaCC activation	blocked gintonin-induced BKCaK^+ channel activation	blocked		
